For this test, the system named is IL-2 promoter/enhancer. In words: IL-2 promoter assay (luciferase reporter in J.1F/C6 Jurkat cells). The settings on record: Homo sapiens; J.1F/C6 Jurkat cell line, induction with ionomycin and PMA; read-out: IC50, inhibition of luciferase activity in IL-2 promoter assay. It is filed as cell-based. An excerpt:
The IL-2 promoter assay measures transcriptional activation of a luciferase reporter gene which has been placed under control of the IL-2 promoter/enhancer. All the known regulatory features of the IL-2 gene are contained within a ˜300 bp sequence immediately upstream of the open reading frame. The region −328 to +35 relative to the transcription start site of the IL-2 gene is obtained by […] of human genomic DNA and is subcloned into the promoterless luciferase reporter vector pGL2-Basic (Promega). The resulting construct, pIL2P-luc, and a vector containing a neomycin resistance gene, pcDNA/Neo (Invitrogen), are linearized and stably transfected into Jurkat cells (a human T-cell line) by electroporation.
For screening compounds, the cells are pelleted by centrifugation, washed once with PBS, resuspended in RPMI (phenol red-free) containing 5% FBS, and dispensed into 96-well, white microtiter plates (Packard) at 50,000 cells/well. The cells are pre-incubated with compounds (1 μg/ml) for 15 min prior to addition of ionomycin (1 μg/ml) and PMA (10 ng/ml) in a final volume of 100 μl. Following a 5 hr incubation at 37° C. in a humidified incubator, 100 μl of Luc-Lite lysis buffer/luciferase assay buffer (Promega) is added and luminescence measured using a Packard TopCount scintillation counter/luminometer.
Background: Reporter assays use an easily measured gene product as a stand-in for the process of interest.

A word on the IC50: it is the midpoint of a concentration-inhibition curve. In the case of `C=CC[C@@H]1/C=C(\C)C[C@H](C)C[C@H](OC)[C@H]2O[C@@](O)(C(=O)C(=O)N3CCCC[C@H]3C(=O)O[C@H](/C(C)=C/[C@@H]3CC[C@@H](O)[C@H](OC)C3)[C@H](C)[C@@H](O)CC1=O)[C@H](C)C[C@@H]2OC` [FK506], the concentration for half-maximal inhibition (IC50) amounted to 0.3 nM.

The values above are taken from patent US6627647B1, “Substituted 1-(4-aminophenyl)imidazoles and their use as anti-inflammatory agents” (Boehringer Ingelheim Pharmaceuticals, Inc., priority 2000, dated 2003).
